This note sets out measurements from patent publication US20230243825A1, “ADAPTIVE NANOPARTICLE PLATFORMS FOR HIGH THROUGHPUT EXPANSION AND DETECTION OF ANTIGEN-SPECIFIC T CELLS” (The Johns Hopkins University, priority 2020, published 2023).

The subject of one test is B16-OVA tumor cells. Nature of the test: IFN-γ pre-incubation of tumor cells. Type of test: cell-based. The note with it: overnight pre-incubation. Here is the method: Whether this same approach can be expanded to other tumor models was then examined by applying it to B16-OVA. Initial results were inconclusive, so an attempt to increase the amount of recoverable peptide was made by pre-incubating tumor cells overnight with IFN-γ to upregulate MHC I on their surface. […] The calculated yield was approximately […] of peptide per 1×10^4 tumor cells, still roughly 0.00002% (w/w) of the eluted 100 micrograms of peptide.

Test [1] has as its system SIY and VDW-specific CD8+ T cells. In words: In vivo peptide vaccination with poly I:C, dimer staining. The arrangement: species or system mouse. The following applies: Day 0 and Day 7, harvest Day 15. The text has this:
On Day 15, mouse spleens and lymph nodes were harvested for dimer and particle staining, following similar protocols described above.

With IFNγ, the “MHC I expression on tumor cells” value in the test on B16-OVA tumor cells is recorded as “drastically increased”.
As to SIYRYYGL, the “peptide-specific CD8+ T cells, dimer staining pre- vs post-vaccination” value in test [1] is on record as “significant increases”.
Regarding VDWENVSPEL, in test [1], the “peptide-specific CD8+ T cells, dimer staining pre- vs post-vaccination” value was “significant increases”.
